Data published in patent publication US6469030B2, “Methods for the treatment and prevention of ileus” (Adolor Corporation, priority 1999, dated 2002).

Key:
[1] = biological target: mu opioid receptors (Homo sapiens, UniProt P35372); conditions: opioid receptor binding assays; cited from earlier work
[2] = Solubility in water; format: physicochemical; conditions: except at low or high pH conditions
Excerpt: Zwitterionic character may be inherent to the compound, and may impart desirable properties such as poor systemic absorption and sustained local affect on the gut following oral administration.

[3] = tested on: patients undergoing partial colectomy or simple or radical hysterectomy surgical procedures; test: Phase II clinical study versus placebo in patients after abdominal surgery (post-surgical ileus); format: in vivo, humans
Procedure: A 78 patient Phase II clinical study was conducted which compared two doses (2 mg and 12 mg) of the compound of formula (II) versus placebo in patients undergoing partial colectomy or simple or radical hysterectomy surgical procedures. The results of this study are set forth in the following Tables 1 to 4 and are depicted graphically in FIGS. 1 to 5.
The time to first flatus was reduced by 15 hours; all other measures were reduced by 24 hours or more. […] In particular, none of the patients receiving the higher dose of the compound of formula (II) experienced post-surgical vomiting compared to 23% in the placebo control group (P<0.03). Twenty seven percent of the patients receiving the higher dose of compound (II) experienced clinically relevant post- surgical nausea compared to 63% of the placebo control group (P=0.003).

Sequence of mu opioid receptors (P35372 whole entry): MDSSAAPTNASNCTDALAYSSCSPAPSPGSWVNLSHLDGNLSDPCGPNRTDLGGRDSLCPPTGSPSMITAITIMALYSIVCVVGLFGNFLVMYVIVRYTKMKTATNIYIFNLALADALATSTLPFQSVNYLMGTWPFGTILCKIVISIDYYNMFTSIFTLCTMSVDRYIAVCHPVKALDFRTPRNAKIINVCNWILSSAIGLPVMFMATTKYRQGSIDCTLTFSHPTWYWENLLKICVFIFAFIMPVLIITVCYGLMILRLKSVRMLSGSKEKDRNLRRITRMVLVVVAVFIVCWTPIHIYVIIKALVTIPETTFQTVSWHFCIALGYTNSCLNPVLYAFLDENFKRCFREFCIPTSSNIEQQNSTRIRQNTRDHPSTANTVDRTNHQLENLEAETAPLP

C[C@H]1CN(C[C@H](Cc2ccccc2)C(=O)NCC(=O)O)CCC1(C)c1cccc(O)c1 (single isomer, unassigned; (+)) [compound of formula (II), (+)-Z—NHCH2C(O)OH]
opioid receptor binding preference [1]: preferential binding to mu opioid receptors
solubility in water [2]: low solubility in water
overall adverse effects compared with placebo-treated group ([3]; higher dose): fewer overall adverse effects
reduction of all other measures (first bowel movement, solid diet, ready for discharge, discharge) ([3]; higher dose versus placebo): ≥ 24 h
reduction of time to first flatus ([3]; higher dose versus placebo): 15 h
patients experiencing post-surgical vomiting ([3]; higher dose, 23% in the placebo control group (P<0.03)): none
patients experiencing clinically relevant post-surgical nausea ([3]; higher dose, 63% of the placebo control group (P=0.003)): Twenty seven
serious adverse side effects judged related to the compound ([3]; patients of the trial): No patients experienced serious adverse side effects
effect on beneficial analgesic effects of systemic narcotics ([3]; patients receiving systemic narcotics for post-surgical pain): did not reduce the beneficial analgesic effects
